Data from patent US5565336A, “Carboxy terminal IL-6 muteins” (University of North Carolina at Chapel Hill, priority 1994, dated 1996).

How the values were obtained:
[1] = tested on: human hepatoma cell line HEP3B2; assay: hepatocyte stimulation (fibrinogen induction) assay using human hepatoma cell line HEP3B2; format: cell-based; conditions: in vitro activity on a human hepatoma cell line; result in words
Text: The biological activity of wild-type IL-6 and IL-6 muteins can be measured by standard assays for measuring IL-6 activity, as is known in the art. For example, the in vitro biological activity of the IL-6 muteins of the invention may be compared with native IL-6 in a fibrinogen induction assay using a human hepatoma cell line, HEP3B2. When determined in such an assay and expressed as a percentage of activity of native, wild-type, IL-6, the activity of which is defined as 100%, the biological activity of the muteins of the present invention is at least 125%, preferably at least 150%. (See Example 3 and FIG. 6)
The hepatocyte stimulation assay using human hepatoma cell line HEP3B2 is carried out in duplicate serial dilutions of three or more independent preparations of each IL-6 mutein. The biological activity is determined from dose response curves prepared for each protein preparation. To minimize variation, a duplicate protein preparation of wild-type IL-6 is used in each 96-well tissue culture plate to calculate the activity of two (HEP3B2) IL-6 muteins on the same plate as a percentage of wild-type IL-6 activity. (See FIG. 6)
Cells from the human hepatoma cell line HEP3B2 are maintained in DMEM-H medium supplemented with 10% fetal bovine serum and penicillin/streptomycin. […] The OD405 is determined on a Vmax ELISA plate reader (Molecular Devices Corp., Palo Alto, Calif.). […]

IL-6 receptor = assay: binding competition assay / Scatchard analysis with 125I-IL-6 on human myeloma cell line U-266; conditions: Kd wild-type IL-6 divided by Kd mutein; result in words
Experimental: The affinity may be determined with a Scatchard analysis and quantitated as a dissociation constant, Kd.
Binding competition assays are performed using human recombinant IL-6 derived from Escherichia coli (Genetics Institute, Cambridge, Mass.). IL-6 is radioiodinated using the Bolton-Hunter reagent (New England Nuclear, Wilmington, Del.) as described by Faltynek, C. […] The specific activity of the radiolabelled IL-6 is 22 μC/μg. […] This medium is also used for making the dilutions of the IL-6 muteins and as the binding medium. The fetal bovine serum batches are routinely tested for IL-6 activity and only batches that show negligible IL-6 activity are used for competition binding assays. […]
Binding is performed by sealing the plates with acetate plate sealers (ICN Biomedicals, Costa Mesa, Calif.) and end-over rotation for 3 hours at 4° C. […] The cell pellets are washed once with 200 μl of ice-cold Ca^++ /Mg^+ free Hank's balanced salt solution (HBSS), resuspended in 200 μl of HBSS, transferred to scintillation vials and counted in a gamma counter.
The results of the Scatchard and competition binding assays are analyzed using a non-linear curve fitting program LIGAND. […] An apparent IC50 is calculated using the EBDA/LIGAND program.

In the case of “IL-6 mutein with Phenylalanine at position 171 of the native sequence (Phe^171) replaced by Leucine (Leu): mutein of human IL-6 with substitution of Phenylalanine by Leucine at position 171; SEQ. ID. NOS. 3 and 4”, the “biological activity compared to wild-type IL-6” value [1] is reported as “higher biological activity” and the “receptor binding capacity compared to wild-type IL-6” value (IL-6 receptor) is reported as “increased receptor binding capacity”.
